{
  "source": "patent US20220106596A1",
  "about": "“A METHOD OF GENE EDITING” (University of Washington, priority 2019, published 2022)",
  "key": {"[1]": {"tested_on": "HT-1080 cells with LHSN63D530 provirus and HPRT exon3D4", "experiment": "neo gene editing in HT-1080 cells infected with AAV2-HSN5′ (G418 selection), effect of emetine", "type": "cell-based, human", "from_the_text": "(§1) The murine leukemia virus (MLV) vector LHSN63Δ53O contains a nonfunctional neomycin phosphotransferase target gene (neo) with a 53-bp deletion at nucleotide 63 of its open reading frame, a hygromycin phosphotransferase gene (hph) for selection, and a plasmid replication origin for recovering the target sites.\n(§2) In some embodiments, a cell is gene edited using the HT-1080 (human fibrosarcoma cells) gene editing assay. This method uses HT-1080 neo/HPRT editing cells transduced with LHSN63Δ53O. HT-1080 cells contain an integrated copy of an MLV LHSN63Δ530 targeting locus and a 4 by deletion in the single copy, X-linked HPRT gene at exon 3. The cells are transduced with AAV2-HSN5′ and cultured in G418 to identify neo gene-edited cells. The AAV2-HSN5′ gene targeting vector contains sequences homologous to MLV-LHSN63Δ53O with a truncated neo gene that lacks the 53 by deletion. Alternatively, HT-1080 cells are transduced with AAV2-HPe3 targeting vector and selected with HAT medium to identify HPRT gene-edited cells (See Russell et al., 2008, Human Gene Therapy, 19: 907-914 and Deyle et al., 2014, Nature Structural & Molecular Biol., 21: 969-975). Targeted clones are expanded as a polyclonal population. Untargeted control cells are generated by transducing HT-1080 cells with the MLV vector LHSNO, which is identical to LHSN63Δ53O except that it contains a functional neo gene.\n(§3) To determine the effect of emetine on gene editing, experiments were performed using human HT-1080 cells with LHSN63Δ530 provirus and HPRT exon 3Δ4, infected with AAV2-HSN5′ or AAV2-HPe3. Replicate samples of cells were treated under the following conditions: • AAV (MOI 2×10^4) alone for 24 hours; • 0.125 μM emetine for 8 hours followed by the addition of AAV (MOI 2×10^4) and incubation for 24 hours; • 0.25 μM emetine for 24 hours followed by the addition of AAV (MOI 2×10^4) and incubation for 24 hours; • 0.25 μM emetine for 24 hours followed by the addition of AAV (MOI 2×10^4) and incubation with AAV for 24 hours; • 0.25 μM emetine in the presence of AAV (MOI 2×10^4) for 24 hours; • AAV (MOI-2×10^4) for 8 hours followed by the addition of 0.25 μM emetine and incubation with emetine for 23 hours; • AAV (MOI-2×10^4) for 24 hours followed by the addition of 0.25 μM emetine and incubation with emetine for 8 hours; • AAV (MOI-2×10^4) for 8 hours followed by the addition of emetine (0.25 μM) and incubation with emetine for 18 hours, removal of emetine, followed by addition of a second dosage of emetine (0.25 μM) and incubation for 16 hours; or • AAV (MOI 2×10^4) for 24 hours followed by the addition of emetine (0.25 μM) and incubation for 7 hours, removal of emetine, followed by addition of a second dosage of emetine (0.25 μM) for 2 hours.\n(§4) For each experiment, 2×10^4 cells were seeded and cultured in the presence of 4×10^8 AAV. All experiments were performed in DMEM+10% FBS+pen/strep. Emetine dihydrochloride hydrate: E2375 (Sigma) was prepared in water and sterilized by filtration on 0.22 uM filter."}, "[2]": {"tested_on": "mouse Hepa1-6 hepatoma cells", "experiment": "Gene editing (albumin knock-in, GFP expression by flow cytometry) with AAVDJ-mAlb-GFP", "type": "cell-based", "details": "1000 nM emetine", "experimental": "To determine the effect of emetine on gene editing, experiments were performed using mouse Hepa1-6 hepatoma cells using the vector AAVDJ-mAlb-GFP. Gene editing in the presence of this vector results in an albumin knock-in with resulting expression of green fluorescent protein (GFP).\nOn day 0, 100,000 cells were plated in 1.5 ml DMEM with 10% FBS, 100 units/mL penicillin and 100 μg/mL streptomycin. On day 1, cells were transduced with AAVDJ-mAlb-GFP (multiplicity of (MOI)—50,000) by removing the media and adding to the cells 1.5 ml of fresh media (DMEM with 10% FBS, 100 units/mL penicillin, 100 μg/mL streptomycin) containing the desired MOI of the AAVDJ-mAlb-GFP virus. For 100,000 cells, to achieve an MOI of […] were added.\nOn day 2, fresh medium (1.5 ml of DMEM with 10% FBS, 100 units/mL penicillin, 100 μg/mL streptomycin) with or without emetine, was added. Replicate samples were treated with no emetine, or with 30 nM emetine, 100 nM emetine or 1000 nM emetine. A control sample lacked AAV. On day 3, the media was removed and 1.5 ml of DMEM with 10% FBS, 100 units/mL penicillin, 100 μg/mL streptomycin was added to the cells. Expression of GFP was measured on days 6, 7 and 10.\nFlow cytometry was used to measure GFP expression. On the day of the assay (days 6, 7 and 10) cells were trypsinized and the resulting cell pellet was resuspended in 500 μL of FACS buffer (DPBS (Dulbecco's Phosphate Buffered Saline) without Ca2+, Mg2+, and supplemented with 2% FBS, 1 mM EDTA). The resulting cell suspension was analyzed for GFP positive cells on the BD FACScanto II. For samples treated with no AAV, 0 nM emetine, 30 nM emetine, and 100 nM emetine, 100,000 cells were analyzed, and for samples treated with 1000 nM emetine, 70,000 cells were analyzed."}, "[3]": {"tested_on": "HT-1080 cells with LHSN63D530 provirus and HPRT exon3D4", "experiment": "HPRT gene editing in HT-1080 cells infected with AAV2-HPe3 (HAT selection), effect of emetine", "type": "cell-based, human", "from_the_text": "as §1, §2, §3, §4"}, "[4]": {"tested_on": "mouse liver", "experiment": "In vivo gene editing of mouse liver with AAVDj-mALB-luciferase (bioluminescence imaging)", "set-up": "species or system C57BL/6 mice", "details": "emetine 5 mg/kg intraperitoneal, days 1-5, FIG. 3", "experimental": "To determine the effect of emetine on gene editing in vivo, experiments were performed using C57BL/6 mice.\n[…]. On day 0, 5 mice (Group I), were given AAVDj-mALB-luciferase vector at an amount of 3×10^11 vg/mouse by retro orbital injection. Gene editing of the AAVDj-mALB-luciferase vector results in an albumin locus knock-in and luciferase expression. 5 mice (Group 2) were injected with AAVDj-mALB-luciferase vector, at an amount of 3×10^11 vg/mouse by retro orbital injection, and given emetine in DPBS, at a concentration of 5 mg/kg, by intraperitoneal injection. 5 mice (Group 3) were injected only with emetine at a concentration of 5 mg/kg, by intraperitoneal injection.\nEmetine was administered to Groups 2 and 3 on days 1-5. On days 8, […] and 22, in vivo imaging in the presence of 15 mg/kg D-luciferin, administered by intraperitoneal injection, was performed to determine the occurrence of editing. Following D-luciferin administration, the mice were anesthetized with isoflurane and placed in an IVIS imager and the peak bioluminescence was recorded (Gornalusse et al., 2017, Nature Biotech, 35(8): 765-772). […] At days 15 and 22, a 1.6 and 1.4 fold increase, respectively, were observed."}, "[5]": {"details": "0.125 μM emetine for 8 hrs before adding AAV"}, "[6]": {"details": "0.25 μM emetine for 24 hrs before adding AAV"}, "[7]": {"details": "0.25 μM emetine for 24 hrs before adding AAV + 24 hrs with AAV"}, "[8]": {"details": "0.25 μM emetine for 24 hrs with AAV"}, "[9]": {"details": "AAV for 8 hrs, then added 0.25 μM emetine for 23 hrs"}, "[10]": {"details": "AAV for 8 hrs, then added emetine for 18 hrs, then removed emetine for 8 hrs, then added emetine for 16 hrs"}, "[11]": {"details": "AAV for 24 hrs then with 0.25 μM emetine for 8 hrs"}, "[12]": {"details": "AAV for 24 hrs, then emetine for 7 hrs, then removed emetine for 16 hrs, then added emetine for 2 hrs"}},
  "data": [
    {"smiles": "CC[C@H]1CN2CCc3cc(OC)c(OC)cc3[C@@H]2C[C@@H]1C[C@H]1NCCc2cc(OC)c(OC)cc21", "note": "[emetine]", "values": [
      {"measurement": "Fold increase in editing frequency due to emetine, % G4158R emetine/% G418R no emetine", "setting": "[1]; [5]", "value": 2.40, "unit": "Fold"},
      {"measurement": "Fold increase in editing frequency due to emetine, % G4158R emetine/% G418R no emetine", "setting": "[1]; [6]", "value": 3.82, "unit": "Fold"},
      {"measurement": "Fold increase in editing frequency due to emetine, % G4158R emetine/% G418R no emetine", "setting": "[1]; [7]", "value": 6.64, "unit": "Fold"},
      {"measurement": "Fold increase in editing frequency due to emetine, % G4158R emetine/% G418R no emetine", "setting": "[1]; [8]", "value": 3.70, "unit": "Fold"},
      {"measurement": "Fold increase in editing frequency due to emetine, % G4158R emetine/% G418R no emetine", "setting": "[1]; [9]", "value": 1.96, "unit": "Fold"},
      {"measurement": "Fold increase in editing frequency due to emetine, % G4158R emetine/% G418R no emetine", "setting": "[1]; [10]", "value": 8.47, "unit": "Fold"},
      {"measurement": "Fold increase in editing frequency due to emetine, % G4158R emetine/% G418R no emetine", "setting": "[1]; [11]", "value": 1.94, "unit": "Fold"},
      {"measurement": "Fold increase in editing frequency due to emetine, % G4158R emetine/% G418R no emetine", "setting": "[1]; [12]", "value": 2.63, "unit": "Fold"},
      {"measurement": "increase in expression of GFP", "setting": "[2]; day 6, FIG. 2", "value": 22, "unit": "fold"},
      {"measurement": "increase in expression of GFP", "setting": "[2]; day 7, FIG. 2", "value": 12, "unit": "fold"},
      {"measurement": "increase in expression of GFP", "setting": "[2]; day 10, FIG. 2", "value": 3, "unit": "fold"},
      {"measurement": "Fold increase in editing frequency due to emetine, % HATR/% HAR no emetine", "setting": "[3]; [5]", "value": 8.39, "unit": "Fold"},
      {"measurement": "Fold increase in editing frequency due to emetine, % HATR/% HAR no emetine", "setting": "[3]; [6]", "value": 7.25, "unit": "Fold"},
      {"measurement": "Fold increase in editing frequency due to emetine, % HATR/% HAR no emetine", "setting": "[3]; [7]", "value": 11.19, "unit": "Fold"},
      {"measurement": "Fold increase in editing frequency due to emetine, % HATR/% HAR no emetine", "setting": "[3]; [8]", "value": 8.39, "unit": "Fold"},
      {"measurement": "Fold increase in editing frequency due to emetine, % HATR/% HAR no emetine", "setting": "[3]; [9]", "value": 1.99, "unit": "Fold"},
      {"measurement": "Fold increase in editing frequency due to emetine, % HATR/% HAR no emetine", "setting": "[3]; [10]", "value": 2.88, "unit": "Fold"},
      {"measurement": "Fold increase in editing frequency due to emetine, % HATR/% HAR no emetine", "setting": "[3]; [11]", "value": 1.63, "unit": "Fold"},
      {"measurement": "Fold increase in editing frequency due to emetine, % HATR/% HAR no emetine", "setting": "[3]; [12]", "value": 1.56, "unit": "Fold"},
      {"measurement": "increase in level of gene editing in vivo in mouse liver (peak bioluminescence) as compared to mice treated with AAV alone", "setting": "[4]; day 8", "value": 2.3, "unit": "fold"},
      {"measurement": "increase in level of gene editing in vivo in mouse liver (peak bioluminescence) as compared to mice treated with AAV alone", "setting": "[4]; day 15", "value": 1.6, "unit": "fold"},
      {"measurement": "increase in level of gene editing in vivo in mouse liver (peak bioluminescence) as compared to mice treated with AAV alone", "setting": "[4]; day 22", "value": 1.4, "unit": "fold"}
    ]}
  ]
}
